This data set in a line: Polymorphic conversion testing after compression at 1 ton pressure and storage in different environments (DSC/FT-IR). In kind it is physicochemical. As to the method:
Polymorphic Conversion Testing after Compression at 1 Ton Pressure and Storage in Different Environments.
Compacts of glatifloxacin anhydrous and gatifloxacin hemihydrate were prepared and placed in chambers that were equilibrated as follows:
(i) 25° C. and 21% relative humidity (RH);
(iii) 40° C. and 21% RH; and
Compacts of glatifloxacin anhydrous and gatifloxacin hemihydrate were evaluated by DSC and FT-IR immediately after compression, after 2 days of exposure under the above conditions, and after 6 or 7 days of exposure.
Conversion is identified as a change in DSC thermogram or FT-IR pattern.

Where [1] appears, read: 6 or 7 Days at 25° C. and 21% RH.
The mark [2] stands for this setting: 6 or 7 Days at 25° C. and 75% RH.
Setting [3] is: 6 or 7 Days at 40° C. and 21% RH.
[4] abbreviates: 6 or 7 Days at 40° C. and 75% RH.

The record followed here is patent US20060247255A1, “Method for preparing a stable gatifloxacin composition” (priority 2005, published 2006).

As to `COc1c(N2CCNC(C)C2)c(F)cc2c(=O)c(C(=O)O)cn(C3CC3)c12` (stereo not shown) [Gatifloxacin Anhydrous, 1-cyclopropyl-6-fluoro-1,4-dihydro-8-methoxy-7-(3-methyl-1-piperazinyl)-4-oxo-3-quinolinecarboxylic acid], the “Conversion (change in DSC thermogram)” value was “No/No” (2 Days at 25° C. and 21% RH); “No/No” (2 Days at 25° C. and 75% RH); “No/No” (2 Days at 40° C. and 21% RH); “Yes/Yes” (2 Days at 40° C. and 75% RH); “No/No” under setting [1]; “Yes/Yes” under setting [2]. In addition, the “Conversion (change in DSC thermogram)” value runs as follows: under setting [3], “No/No”; under setting [4], “Yes/Yes”; (Immediately after compression) “No/No”. The “Conversion (change in FT-IR pattern)” value by setting is: (2 Days at 25° C. and 21% RH) “No/No”; (2 Days at 25° C. and 75% RH) “No/No”; (2 Days at 40° C. and 21% RH) “No/No”; (2 Days at 40° C. and 75% RH) “Yes/Yes”; under setting [1], “No/No”; under setting [2], “Yes/Yes”. In addition, the “Conversion (change in FT-IR pattern)” value is, setting by setting: under setting [3], “No/No”; under setting [4], “Yes/Yes”; (Immediately after compression) “No/No”. The “Physical stability” value was “did not effect” under setting [3] and “deleteriously effects the physical stability” (approximately 75% RH for a period of 2 days).
As to `COc1c(N2CCNC(C)C2)c(F)cc2c(=O)c(C(=O)O)cn(C3CC3)c12` (stereo not shown) [Gatifloxacin Hemihydrate, 1-cyclopropyl-6-fluoro-1,4-dihydro-8-methoxy-7-(3-methyl-1-piperazinyl)-4-oxo-3-quinolinecarboxylic acid], the “Conversion (change in DSC thermogram)” value is, setting by setting: (2 Days at 25° C. and 21% RH) “No/No”; (2 Days at 25° C. and 75% RH) “No/No”; (2 Days at 40° C. and 21% RH) “No/No”; (2 Days at 40° C. and 75% RH) “No/No”; under setting [1], “No/No”; under setting [2], “Yes”. The “Conversion (change in DSC thermogram)” value by setting is: under setting [3], “No/No”; under setting [4], “Yes/Yes”; (Immediately after compression) “No/No”. Also, the “Conversion (change in FT-IR pattern)” value is recorded as “No/No” (2 Days at 25° C. and 21% RH); “No/No” (2 Days at 25° C. and 75% RH); “No/No” (2 Days at 40° C. and 21% RH); “No/No” (2 Days at 40° C. and 75% RH); “No/No” under setting [1]; “No” under setting [2]. Further, the “Conversion (change in FT-IR pattern)” value reads like this: under setting [3], “No/No”; under setting [4], “Yes/Yes”; (Immediately after compression) “No/No”. Moreover, the “Physical stability” value is “did not effect” under setting [3] and “deleteriously effects the physical stability” (approximately 75% RH for a period of at least 6 days).
